Assay [1] concerns the target T1, HLA-A0201 (Homo sapiens, UniProt P04439, D140Y/D185E/D98H/E176V/E277Q/G131W/G231S/I119V/I121R/I166T/I218V/L300P/L318F/N151K/N90K/P208A/P217A/Q86G/Q94H/R138H/R169H/T345S).
T1 construct: expressed in transfected cells; host or cells: HMy2.CIR
Nature of the assay: cell-based. Particulars: for inhibition at 5 µM / inhibition at 15 µM / 5-μM inhibition (%) / 15-μM inhibition (%): A0201, 24 h, 4°C, flow cytometry; for inhibition at 5 µM / 5-μM inhibition (%): peptide 5 μM vs FITC-labeled reference peptide 300 nM; for inhibition at 5 µM: read-out: 5-μM inhibition (%); for inhibition at 15 µM / 15-μM inhibition (%): peptide 15 μM vs FITC-labeled reference peptide 300 nM; for inhibition at 15 µM: read-out: 15-μM inhibition (%). Type of assay: binding.

Assay [2] addresses T2, HLA-A0207 (Homo sapiens, UniProt P04439, D140Y/D185E/D98H/E176V/E277Q/G131W/G231S/I119V/I121R/I166T/I218V/L300P/L318F/N151K/N90K/P208A/P217A/Q86G/Q94H/R138H/R169H/T345S/Y123C).
T2 construct: expressed in transfected cells; host or cells: HMy2.CIR
The experiment in a line: Peptide competitive binding assay, HMy2.CIR cells expressing A0207. Particulars: 24 h, 4°C, flow cytometry; for inhibition at 5 µM / 5-μM inhibition (%): peptide 5 μM vs FITC-labeled reference peptide 300 nM; for inhibition at 15 µM / 15-μM inhibition (%): peptide 15 μM vs FITC-labeled reference peptide 300 nM.

Assay [3] deals with T3, HLA-A3001 (Homo sapiens, UniProt P04439, D140H/D185E/E176W/F33S/G80R/H175R/K168Q/R138E/R41S).
T3 construct: expressed in transfected cells; host or cells: HMy2.CIR
The experiment in a line: cell-based. It is filed as binding. Particulars: for inhibition at 5 µM / inhibition at 15 µM / 5-μM inhibition (%) / 15-μM inhibition (%): A3001, 24 h, 4°C, flow cytometry; for inhibition at 5 µM / 5-μM inhibition (%): peptide 5 μM vs FITC-labeled reference peptide 300 nM; for inhibition at 5 µM: read-out: 5-μM inhibition (%); for inhibition at 15 µM / 15-μM inhibition (%): peptide 15 μM vs FITC-labeled reference peptide 300 nM; for inhibition at 15 µM: read-out: 15-μM inhibition (%).

The target of assay [4] is T4, HLA-A0206 (Homo sapiens, UniProt P04439, D140Y/D185E/D98H/E176V/E277Q/F33Y/G131W/G231S/I119V/I121R/I166T/I218V/L300P/L318F/N151K/N90K/P208A/P217A/Q86G/Q94H/R138H/R169H/T345S).
T4 construct: expressed in transfected cells; host or cells: HMy2.CIR
Nature of the assay: Peptide competitive binding assay, HMy2.CIR cells expressing A0206. Particulars: for 5-μM inhibition (%) / inhibition at 5 µM: peptide 5 μM vs FITC-labeled reference peptide 300 nM; for 5-μM inhibition (%) / 15-μM inhibition (%) / inhibition at 5 µM / inhibition at 15 µM: 24 h, 4°C, flow cytometry; for 15-μM inhibition (%) / inhibition at 15 µM: peptide 15 μM vs FITC-labeled reference peptide 300 nM. For orientation: A flow cytometer gives signals particle by particle.

The target of assay [5] is T5, HLA-A0203 (Homo sapiens, UniProt P04439, A173T/D140Y/D185E/D98H/E277Q/G131W/G231S/I119V/I121R/I166T/I218V/L180W/L300P/L318F/N151K/N90K/P208A/P217A/Q86G/Q94H/R138H/R169H/T345S).
T5 construct: expressed in transfected cells; host or cells: HMy2.CIR
Nature of the assay: cell-based. Type of assay: binding.

Broadly, the inhibition is the change of the read-out against control, counted positive when it falls.

Where no end group is shown, it is not given here. Where only a bound is given, the exact number is not on record here.

For the sequence YQYMDDLYV [Peptide P15], in assay [1], the IC50 was < 5 µM, the inhibition at 5 µM was 56.5% and the inhibition at 15 µM is 83%. For the same sequence, in assay [2], the inhibition at 5 µM is 20.1% and testing at 15 µM gave an inhibition of 27.6%.

As to ASRELERFA [Peptide P90], in assay [3], the IC50 fell in the range of 5 to 15 µM, the inhibition at 5 µM was 17.7% and the inhibition at 15 µM was 58%.

QIINMWQEV [Peptide P73]: in assay [4], the “5-μM inhibition (%)” value was 25.71% and the “15-μM inhibition (%)” value is 27.84%.

With YVDRFFKTL [Peptide P76], in assay [2], the “5-μM inhibition (%)” value is listed as 11.90% and the “15-μM inhibition (%)” value is listed as 30.60%.

Take RLRPGGRKK [Peptide P89]: in assay [3], the “5-μM inhibition (%)” value was determined as 27.40% and the “15-μM inhibition (%)” value was 39.48%.

For RVRQGYSPL [Peptide P91], in assay [3], the IC50 is < 5 µM, the inhibition at 5 µM came out at 92.4% and the inhibition at 15 µM amounted to 100%.

For the sequence LVDTIAIAV [Peptide P77], in assay [2], the “5-μM inhibition (%)” value stood at 9.36% and the “15-μM inhibition (%)” value turned out to be 23.40%.

Turning to WIILGLNKI [Peptide P72], the IC50 in assay [4] (class from inhibition at 5 and 15 μM of FITC-labeled reference peptide binding, read-out: Affinity) lay in the range of 5 to 15 µM. In assay [4], this sequence came in with an inhibition at 5 µM of 40.9% and an inhibition at 15 µM of 67.3%.

In the case of KVYLSWVPA [Peptide P94], in assay [3], the “5-μM inhibition (%)” value worked out at 27.40% and the “15-μM inhibition (%)” value amounted to 45.93%.

With KVILVAVHV [Peptide P74], in assay [4], the “5-μM inhibition (%)” value is 20.64%.

YQLEKDPIV [Peptide P11]: the “5-μM inhibition (%)” value in assay [1] came to 5.87%; in assay [2], 5.57%. The “15-μM inhibition (%)” value in assay [1] came out at 28.56%; in assay [2], 12.66%.

On to KIILVAVHV [Peptide P75], for which, in assay [4], the “5-μM inhibition (%)” value turned out to be 3.69% and the “15-μM inhibition (%)” value stood at 5.11%.

For the sequence YMEAEVIPA [Peptide P82], in assay [2], the “5-μM inhibition (%)” value was found to be 13.67% and the “15-μM inhibition (%)” value is reported as 30.79%.

Turning to SLFNTVATL [Peptide P10], the “5-μM inhibition (%)” value is on record as 15.75% in assay [1]; 0.00% in assay [2]; 20.39% in assay [5] (A0203, peptide 5 μM vs FITC-labeled reference peptide 300 nM, 24 h, 4°C, flow cytometry). Moreover, the “15-μM inhibition (%)” value is 31.36% in assay [1]; 7.34% in assay [2]; 42.50% in assay [5] (A0203, peptide 15 μM vs FITC-labeled reference peptide 300 nM, 24 h, 4°C, flow cytometry).

As for KIVRMYSPV [Peptide P71], in assay [4], the “5-μM inhibition (%)” value came out at 6.54% and the “15-μM inhibition (%)” value is 14.21%.

For RLINCNTSV [Peptide P6], the inhibition at 5 µM is 0.13% in assay [1]; 15.8% in assay [5] (A0203, peptide 5 μM vs FITC-labeled reference peptide 300 nM, 24 h, 4°C, flow cytometry, read-out: 5-μM inhibition (%)); 14.6% in assay [4]. Also, the inhibition at 15 µM in assay [1] was determined as 23.6%; in assay [5] (A0203, peptide 15 μM vs FITC-labeled reference peptide 300 nM, 24 h, 4°C, flow cytometry, read-out: 15-μM inhibition (%)) it was 70.7%; in assay [4] it was 41.8%. The sequence further gave an IC50 in assay [5] of 5 to 15 µM.

Consider QLPEKDSWTV [Peptide P14], for which, in assay [1], the IC50 fell in the range of 5 to 15 µM, the inhibition at 5 µM was 27.6% and the inhibition at 15 µM turned out to be 81.5%. In assay [2], this sequence came in with an inhibition at 5 µM of 0% and an inhibition at 15 µM of 8.35%.

As to RLRGFILVA [Peptide P92], in assay [3], the “5-μM inhibition (%)” value turned out to be 18.53% and the “15-μM inhibition (%)” value came to 39.48%.

KVVPRRKAK [Peptide P93]: in assay [3], the “5-μM inhibition (%)” value worked out at 16.92% and the “15-μM inhibition (%)” value came to 41.10%.

VLDVGDAYF [Peptide P81]: in assay [2], the “5-μM inhibition (%)” value was 0.00% and the “15-μM inhibition (%)” value is on record as 23.16%.

As for QLTEVVQKV [Peptide P80], in assay [2], the “5-μM inhibition (%)” value is listed as 20.67% and the “15-μM inhibition (%)” value was 25.60%.

With YLKDQKFLGL [Peptide P78], in assay [2], the “5-μM inhibition (%)” value came out at 11.50% and the “15-μM inhibition (%)” value is given as 30.40%.

These data come from PMC11850406, “Large-scale screening of HIV-1 T-cell epitopes restricted by 12 prevalent HLA-A allotypes in Northeast Asia and universal detection of HIV-1-specific CD8^+ T cells” (Frontiers in Microbiology, 2025).
